Test results reported in patent US20250313635A1, “ANTI-INTEGRIN ANTIBODIES AND USES THEREOF” (Merck Sharp & Dohme LLC, priority 2022, published 2025).
Where two headings read alike, the source gives them in different places.

Tests used:
[1] = target: T1, hαvβ3 (Homo sapiens, UniProt P05106+P06756); test: Human AlphaLISA integrin-ligand blocking assay (vitronectin); type: biochemical
T1 construct: The full extracellular domains for all α and β integrin subunits; (GGGS)3 linker (C); acidic coiled-coil with cysteine (C); GG-Avitag (C); hexa-histidine tag (C); basic coiled-coil with cysteine (C); made in house; host or cells: Expi293 cells
T1 sequence (P06756 31-992 limits assumed): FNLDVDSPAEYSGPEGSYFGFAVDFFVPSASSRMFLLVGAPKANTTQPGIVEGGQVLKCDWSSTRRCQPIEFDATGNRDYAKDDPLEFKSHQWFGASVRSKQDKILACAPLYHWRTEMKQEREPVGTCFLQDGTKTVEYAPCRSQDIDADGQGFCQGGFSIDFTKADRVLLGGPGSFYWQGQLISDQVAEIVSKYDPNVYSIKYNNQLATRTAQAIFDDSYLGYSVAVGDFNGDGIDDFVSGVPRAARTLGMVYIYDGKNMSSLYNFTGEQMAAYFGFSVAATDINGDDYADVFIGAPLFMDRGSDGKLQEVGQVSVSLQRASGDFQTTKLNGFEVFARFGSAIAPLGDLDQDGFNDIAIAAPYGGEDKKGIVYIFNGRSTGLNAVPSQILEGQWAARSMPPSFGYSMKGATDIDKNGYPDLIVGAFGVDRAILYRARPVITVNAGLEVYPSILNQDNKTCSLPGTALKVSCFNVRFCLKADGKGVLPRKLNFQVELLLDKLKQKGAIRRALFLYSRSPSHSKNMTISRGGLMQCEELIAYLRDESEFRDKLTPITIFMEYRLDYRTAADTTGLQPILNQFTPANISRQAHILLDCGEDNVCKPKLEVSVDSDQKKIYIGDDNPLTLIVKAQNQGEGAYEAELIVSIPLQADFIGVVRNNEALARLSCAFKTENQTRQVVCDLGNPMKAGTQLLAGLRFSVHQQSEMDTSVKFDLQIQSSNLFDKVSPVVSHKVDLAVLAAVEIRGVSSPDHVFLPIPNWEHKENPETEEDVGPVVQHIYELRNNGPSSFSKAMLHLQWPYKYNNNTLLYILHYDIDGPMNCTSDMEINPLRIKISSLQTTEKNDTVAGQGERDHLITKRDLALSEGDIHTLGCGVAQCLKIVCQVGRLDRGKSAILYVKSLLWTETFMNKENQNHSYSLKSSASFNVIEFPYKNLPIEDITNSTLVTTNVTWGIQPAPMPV
T1 sequence (P05106 27-718 limits assumed): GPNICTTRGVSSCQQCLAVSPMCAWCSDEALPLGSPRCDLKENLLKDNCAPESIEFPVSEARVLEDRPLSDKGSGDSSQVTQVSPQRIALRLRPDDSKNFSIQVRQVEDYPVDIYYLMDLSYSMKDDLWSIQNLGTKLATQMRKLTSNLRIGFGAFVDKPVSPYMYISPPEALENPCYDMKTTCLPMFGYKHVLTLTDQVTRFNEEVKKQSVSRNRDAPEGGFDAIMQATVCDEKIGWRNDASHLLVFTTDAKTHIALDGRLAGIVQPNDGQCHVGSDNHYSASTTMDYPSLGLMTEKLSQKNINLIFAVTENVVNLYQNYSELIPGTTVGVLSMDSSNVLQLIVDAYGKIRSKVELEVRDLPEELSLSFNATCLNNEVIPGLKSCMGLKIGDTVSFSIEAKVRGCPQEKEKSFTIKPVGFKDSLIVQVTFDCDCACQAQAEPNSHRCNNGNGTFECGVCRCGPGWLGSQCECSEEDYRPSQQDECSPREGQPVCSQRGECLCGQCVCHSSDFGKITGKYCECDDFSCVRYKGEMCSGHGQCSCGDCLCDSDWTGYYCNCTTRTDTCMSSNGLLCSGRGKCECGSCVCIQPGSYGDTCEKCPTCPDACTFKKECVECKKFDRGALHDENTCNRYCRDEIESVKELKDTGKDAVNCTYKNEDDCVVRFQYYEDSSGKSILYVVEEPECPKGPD
Method: (§1) Integrin AlphaLISA assay. In the AlphaLISA integrin assays, we used a HEPES based buffer (25 mM HEPES pH 7.4, 137 mM NaCl, 1 mM MgCl2, 1 mM MnCl2, 2 mM CaCl2, 2.7 mM KCl, and 0.05% Tween 20). Optimal assay conditions were determined with a titration of the reagents for signal noise ratio (S/N), linear range, etc. For the respective integrins, we used the final concentrations described in Table 9.
(§2) Briefly, the testing antibody (8 μL) was added as a 4×(of Final testing concentration) solution in the HEPES buffer described previously into a 384w AlphaPlate™ (Perkin Elmer #6005350). Then the integrin and ligand were added sequentially as 8×(4 μL each). Plates were sealed and incubated at room temperature for two hours. Then 4×acceptor bead solution ([…]) was added, and the plates were resealed and incubated at room temperature (RT) for one hour. Finally, 4×([…]) donor beads solution was added in a darkened room and incubated for 45 minutes at room temperature. Plates were read on the Envision (Perkin Elmer) in AlphaScreen™ mode within three hours of donor bead addition.

[2] = target: T2, hαvβ5 (Homo sapiens, UniProt P06756+P18084); test: as above; type: biochemical
T2 construct: The full extracellular domains for all α and β integrin subunits; (GGGS)3 linker (C); acidic coiled-coil with cysteine (C); GG-Avitag (C); hexa-histidine tag (C); basic coiled-coil with cysteine (C); made in house; host or cells: Expi293 cells
T2 sequence (P06756 31-992 limits assumed): as the sequence (P06756 31-992 limits assumed) above
T2 sequence (P18084 24-719 limits assumed): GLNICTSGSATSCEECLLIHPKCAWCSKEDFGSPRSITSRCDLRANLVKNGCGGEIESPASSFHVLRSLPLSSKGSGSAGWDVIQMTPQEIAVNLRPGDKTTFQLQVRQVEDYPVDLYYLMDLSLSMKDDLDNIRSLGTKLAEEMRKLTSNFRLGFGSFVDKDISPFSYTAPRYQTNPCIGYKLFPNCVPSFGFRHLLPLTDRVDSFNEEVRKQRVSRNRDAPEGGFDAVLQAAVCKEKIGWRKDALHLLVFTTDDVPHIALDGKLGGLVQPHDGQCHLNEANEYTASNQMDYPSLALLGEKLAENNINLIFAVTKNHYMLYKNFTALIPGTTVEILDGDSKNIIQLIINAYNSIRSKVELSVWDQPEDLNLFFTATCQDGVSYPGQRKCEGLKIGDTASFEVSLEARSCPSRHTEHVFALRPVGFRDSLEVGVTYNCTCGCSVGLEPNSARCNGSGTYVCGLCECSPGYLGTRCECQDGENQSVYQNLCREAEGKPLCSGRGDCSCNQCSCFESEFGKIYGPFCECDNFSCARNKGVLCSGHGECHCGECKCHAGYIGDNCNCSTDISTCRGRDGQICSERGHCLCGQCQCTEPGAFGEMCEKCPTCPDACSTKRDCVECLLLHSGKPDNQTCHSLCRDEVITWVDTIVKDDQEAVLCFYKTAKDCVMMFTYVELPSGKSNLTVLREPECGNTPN
Method: as §1, §2

[3] = target: T3, mα5β1 (Mus musculus, UniProt P09055+P11688); test: Mouse AlphaLISA integrin-ligand blocking assay (fibronectin); type: biochemical; settings: Table 12; read-out: IC50 Mouse integrin AlphaLISA assays mα5β1
T3 construct: The full extracellular domains for all α and β integrin subunits; (GGGS)3 linker (C); acidic coiled-coil with cysteine (C); GG-Avitag (C); hexa-histidine tag (C); basic coiled-coil with cysteine (C); made in house; host or cells: Expi293 cells
T3 sequence (P11688 45-999 limits assumed): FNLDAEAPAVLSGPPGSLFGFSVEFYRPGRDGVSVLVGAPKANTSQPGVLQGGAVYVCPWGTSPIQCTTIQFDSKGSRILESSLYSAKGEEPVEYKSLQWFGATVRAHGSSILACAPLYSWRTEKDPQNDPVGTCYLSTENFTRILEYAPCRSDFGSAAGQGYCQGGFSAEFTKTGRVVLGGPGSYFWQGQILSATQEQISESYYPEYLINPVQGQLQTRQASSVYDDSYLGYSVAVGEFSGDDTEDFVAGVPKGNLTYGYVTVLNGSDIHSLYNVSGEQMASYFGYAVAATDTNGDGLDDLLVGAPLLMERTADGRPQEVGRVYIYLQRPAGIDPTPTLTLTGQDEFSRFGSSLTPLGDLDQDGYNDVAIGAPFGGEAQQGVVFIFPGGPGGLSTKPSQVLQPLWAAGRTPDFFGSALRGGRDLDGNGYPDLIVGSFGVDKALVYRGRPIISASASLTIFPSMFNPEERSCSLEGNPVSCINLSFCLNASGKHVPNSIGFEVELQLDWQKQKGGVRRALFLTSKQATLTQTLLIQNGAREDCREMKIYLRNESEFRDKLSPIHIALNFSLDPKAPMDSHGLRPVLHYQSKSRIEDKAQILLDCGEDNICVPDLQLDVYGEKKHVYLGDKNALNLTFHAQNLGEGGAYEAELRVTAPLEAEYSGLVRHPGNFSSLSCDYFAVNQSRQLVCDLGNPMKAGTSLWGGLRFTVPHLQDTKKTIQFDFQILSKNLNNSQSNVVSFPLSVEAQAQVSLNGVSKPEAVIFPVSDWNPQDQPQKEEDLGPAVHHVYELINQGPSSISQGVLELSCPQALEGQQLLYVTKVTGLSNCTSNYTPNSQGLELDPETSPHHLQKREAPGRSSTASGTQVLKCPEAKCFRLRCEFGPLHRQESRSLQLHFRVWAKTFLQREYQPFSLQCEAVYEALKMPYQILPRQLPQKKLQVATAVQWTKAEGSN
T3 sequence (P09055 21-728 limits assumed): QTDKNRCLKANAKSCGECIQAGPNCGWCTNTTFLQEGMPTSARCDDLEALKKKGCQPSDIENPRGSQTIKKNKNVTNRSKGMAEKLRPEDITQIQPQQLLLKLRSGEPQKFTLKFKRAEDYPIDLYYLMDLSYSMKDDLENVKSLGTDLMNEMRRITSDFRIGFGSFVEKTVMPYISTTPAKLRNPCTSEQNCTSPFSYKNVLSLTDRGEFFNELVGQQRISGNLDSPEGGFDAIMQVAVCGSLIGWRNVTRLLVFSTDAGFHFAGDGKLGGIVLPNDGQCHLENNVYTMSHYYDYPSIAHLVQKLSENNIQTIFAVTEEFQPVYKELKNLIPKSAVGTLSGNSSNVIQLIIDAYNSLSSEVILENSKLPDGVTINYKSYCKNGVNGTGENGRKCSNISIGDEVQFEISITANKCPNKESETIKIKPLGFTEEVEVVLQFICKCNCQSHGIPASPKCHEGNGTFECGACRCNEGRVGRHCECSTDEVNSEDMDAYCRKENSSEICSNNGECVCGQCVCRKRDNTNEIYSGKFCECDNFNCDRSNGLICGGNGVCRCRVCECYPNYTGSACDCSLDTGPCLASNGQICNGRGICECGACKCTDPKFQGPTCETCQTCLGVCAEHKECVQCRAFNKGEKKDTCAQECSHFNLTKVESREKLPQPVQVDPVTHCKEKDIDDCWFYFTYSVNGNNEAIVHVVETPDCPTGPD
Method: as §1, §2

[4] = system: Normal human lung fibroblasts; test: αSMA imaging, TGFβ-induced αSMA expression; type: cell-based; settings: TGFβ 5 ng/mL, pre-treated 30 minutes, MK-0429 (10 µM) or SB-525334 (10 μM), 48 hours
Method: αSMA imaging. Primary cells (passage 3-5) were grown on Cell carrier Ultra, collagen Type 1 coated 96-well plates (Perkin Elmer, #6055700) at a density of 25,000 cells/well. Once the cells adhere, they were starved in serum free media for 24 hours followed by addition of treatments, i.e., 5 ng/mL TGFβ (Biolegend #580702)±inhibitors. Cells were pre-treated with inhibitors for 30 minutes prior to the addition of TGFβ stimulation. 48 hours post treatment, the cells were fixed in 4% methanol free paraformaldehyde (ThermoFisher Scientific #28908) for 20 minutes at room temperature and incubated with anti-alpha smooth muscle Actin antibody (Abcam #ab7817) at 1:4000 overnight at 4° C. Following primary antibody incubation, cells were incubated with Goat anti-mouse secondary antibody (ThermoFisher Scientific #A32723) at 1:500 and Hoechst (ThermoFisher Scientific #62249) at 1:1000 for one hour at RT. The fixed and stained cells were images for immunofluorescence on Perkin Elmer's Opera Phenix high content Imager.

[5] = system: bleomycin-induced lung fibrosis mouse model; test: Mouse bleomycin lung fibrosis model; type: in vivo; settings: MK-0429 200 mpk osmotic minipump, Nintedanib 60 mpk po qd
Method: Mouse bleomycin lungfibrosis models. Adult male C57BL/6 mice (Taconic, Rensselaer, NY) were housed in a temperature and humidity-controlled facility with a 12-hour light: 12-hour dark cycle. Animals had ad libitum access to food (Purina Rodent Chow 5053, LabDiet, St. Louis, MO) and water. All procedures utilizing experimental animals were conducted in accordance with the Guide for the Care and Use of Laboratory Animals, and experimental procedures were reviewed and approved by the Institutional Animal Care and Use Committee at MRL, Kenilworth, NJ.
For osmotic minipump implantation, trifluoroacetate (TFA) salt of MK-0429 was formulated in 50% dimethylsulfoxide (DMSO)/50% H2O at a concentration of 416 mg/mL. MK-0429 or vehicle solution were filled in minipumps (Alzet, #1007D, flow rate 0.5 μL/hour). Minipumps were placed in mice subcutaneously in a pocket on the back between the shoulder blades. A small incision was made and a subcutaneous pocket formed by blunt dissection. A sterile minipump was inserted into the subcutaneous pocket. The incision was closed with staples or non-absorbable suture or absorbable (subcuticular) suture. The minipumps were used for continuous drug delivery for two weeks.
Mice at 12˜13 weeks of age were randomized to five groups: saline, bleomycin instillation with vehicle (osmotic minipump), bleomycin instillation with MK-0429 treatment, bleomycin instillation with vehicle oral treatment, and bleomycin instillation with Nintedanib treatment. All mice were anaesthetized with isoflurane. Bleomycin was dosed by intratracheal (i.t) instillation in a volume of 50 μL, at a dose of 1 unit/kg body weight. After instillation, mice were kept in a heads-up position for 2-5 minutes before putting into cages. MK-0429 (200 mg/kg) was administered by Osmotic pump from day 5 to day 14 and Nintedanib (60 mg/kg) was administered, p.o., q.d., for 14 days. Vehicle was dosed orally at 10 am daily from the day 5 to the end of the studies and dosing volume was 10 mL/kg. For plasma PK analysis, an aliquot of 50 μL plasma was spiked into a 96-well plate, and 200 μL of acetonitrile containing internal standard were added for protein precipitation. The mixture was vortexed, centrifuged at 4000 rpm for 20 minutes. Then 50 μL of supernatant fraction was mixed with 200 μL H2O and the final solution were injected for LC-MS/MS analysis. The methods for quantitative analysis were developed on UPLC (Waters) chromatographic system equipped with an API4000 QTrap™ mass spectrometer (Applied Biosystems, Concord, Ontario, Canada). Analyst 1.5 software packages (Applied Biosystems) were used to control the LC-MS/MS system and data acquisition and processing.
Histopathology analysis. Upon completion of the study, animals were euthanized and tissues were collected for histological assessment. Lung tissues were perfused with 10% formalin, fixed for 24 hours, and then paraffin embedded. Tissue sections were stained with hematoxylin & eosin (H&E) and Masson's trichrome, subsequently evaluated under light microscope. The severity of histopathologic changes and fibrosis in the lung were graded as described previously by pathologists (Ashcroft et al., J. Clin. Pathol. 41, 467-470 (1988); Hubner et al., Biotechniques 44(507-511), 514-607 (2008)). Following deparaffinization and rehydration, each lung tissue section was processed to identify αSMA deposition by immunohistochemistry. The primary antibodies used were αSMA antibody from Sigma. The Aperio ScanScope™ XT Slide Scanner (Aperio Technologies) system was used to capture whole slide digital images with a 20×objective. Digital images were managed using Aperio Spectrum™. The positive stains were identified and quantified using a macro created from a color deconvolution algorithm (Aperio Technologies). Statistical analysis was performed by using One-way ANOVA followed by Tukey's test.

[6] = 14 days treatment, vs BLM-vehicle

- IC50 ([1]; FIG. 3D, curve-fitted, read-out: IC50 against human αvβ3, AlphaLISA): 0.15 nM
- IC50 ([1]; Table 11, read-out: IC50 Human integrin AlphaLISA assays hαvβ3): 1.6 nM
- IC50 ([2]; FIG. 3D, curve-fitted, read-out: IC50 against human αvβ5, AlphaLISA): 9.9 nM
- IC50 ([2]; Table 11, read-out: IC50 Human integrin AlphaLISA assays hαvβ5): 2.9 nM
- IC50 [3]: 50.3 nM
Structure (SMILES): COc1ccc([C@H](CC(=O)O)N2CCN(CCCc3ccc4c(n3)NCCC4)C2=O)cn1 [MK-0429, (3S)-3-(6-methoxypyridin-3-yl)-3-[2-oxo-3-[3-(5,6,7,8-tetrahydro-1,8-naphthyridin-2-yl)propyl]imidazolidin-1-yl]propanoic acid]
- αSMA intensity and the percentage of stimulated cells following TGFβ treatment [4]: significantly reduced
- body weight difference vs bleomycin group [5]: no significant body weight difference
- BALF TIMP-1 content [5, 6]: did not reach statistical significance
- bleomycin-induced αSMA expression (IHC) [5, 6]: significantly decreased
- inflammation in the lung [5, 6]: nonstatistical significant decrease
- modified Ashcroft score [5, 6]: significantly decreased
